Reference: PubChem BioAssay AID449750 (Broad Institute, 2010)
Active and inactive are the calls of the source. The rule behind the calls is not given here.

Assay: non-covalent RecA intein splicing inhibitors, dose response, biochemical, cell-free, fluorescence, secondary screen (AID 449750)
For CN(C)c1ncc(C2=C(Cl)C(=O)C(N3CCCC3)=C(Cl)C2=O)s1, the AC50 was 14 µM. For O=C(CCl)c1cc2c3c(c1)CC(=O)N3CCC2, the AC50 was > 38 µM (inactive). For Cc1[nH][nH]c(=O)c1C(c1cc([N+](=O)[O-])ccc1O)c1c(C)[nH][nH]c1=O, the AC50 was 14.6 µM. Work on COc1ccc(/C=C2/C(=O)N(c3ccccc3)N=C2C)cc1Br yielded an AC50 of 5.66 µM. COc1cccc(/C=C/C(=O)c2ccc(NS(=O)(=O)c3ccc(C)cc3)cc2)c1 gave an AC50 of 6.79 µM. CC1=NN(c2ccc(C)cc2C)C(=O)C1C(c1cccc(O)c1)C1C(=O)N(c2ccc(C)cc2C)N=C1C (centres undefined) gave an AC50 of 3.51 µM. For Cc1cccc(CS(=O)(=O)c2nnc([C@H](Cc3ccccc3)NC(=O)OC(C)(C)C)o2)c1, the AC50 was > 38 µM (inactive). With COc1cccc(-c2[nH]nc3c2C(c2ccoc2)C(C#N)=C(N)O3)c1 (centres undefined) the AC50 was 28.8 µM. Molecule Oc1cccc(C=Nc2cccc3ccccc23)c1O has an AC50 of 4.42 µM. For Oc1[nH]c(=S)sc1C=C1N=c2ccccc2=N1, the AC50 was > 38 µM (inactive). For O=C(Sc1nnc(-c2ccccc2)o1)N1c2ccccc2Sc2ccccc21, the AC50 was 11 µM. In the case of COc1ccc(N2C(=O)C(Cl)=C(N3CCOCC3)C2=O)cc1, the AC50 is reported as > 38 µM (inactive). With Cc1cccc(CS(=O)(=O)c2ncc(Cl)c(C(=O)Nc3nnc(C(C)C)s3)n2)c1 the AC50 was 2.13 µM. CC1(C)CC(=O)C(C2(O)C(=O)NC(=O)NC2=O)=C(O)C1 gave an AC50 of 1.79 µM. In the case of CCCc1noc2c1C(c1ccoc1)C(C#N)=C(N)N2 (centres undefined), the AC50 is reported as > 38 µM (inactive). For Cc1ccccc1CS(=O)(=O)c1nnc([C@H](CC(C)C)NC(=O)OC(C)(C)C)o1, the AC50 was > 38 µM (inactive). For Cc1cc(Sc2nnc(/N=C/N(C)C)s2)c2ccccc2n1, the AC50 was > 38 µM (inactive). For N#CC(c1ccccc1)c1cnccn1 (centres undefined), the AC50 was > 38 µM (inactive). For CCOC(=O)CSc1nnc(NCC(=O)OC)c(=O)[nH]1, the AC50 was > 38 µM (inactive). In the case of O=C1CC(c2cccnc2)=NN1c1ccccc1, the AC50 is reported as > 38 µM (inactive). Work on CCCc1nnc(NC(=O)c2nc(S(=O)(=O)Cc3ccc(C)cc3)ncc2Cl)s1 yielded an AC50 of 1.55 µM. With Cn1cnc([N+](=O)[O-])c1Sc1nnc(-c2cccnc2)n1C the AC50 was > 38 µM (inactive). CC(=O)Nc1ccc(S(=O)(=O)NC2=C(N3CCN(c4ccc(F)cc4)CC3)C(=O)c3ccccc3C2=O)cc1 showed an AC50 of 26.7 µM. In the case of Cc1ccccc1CS(=O)(=O)c1ncc(Cl)c(C(=O)Nc2ccc(F)cc2)n1, the AC50 is reported as > 38 µM (inactive). Work on Cc1[nH]n(-c2ccccc2)c(=O)c1C(C[N+](=O)[O-])c1ccccc1Cl (centres undefined) yielded an AC50 of 7.38 µM. For Cc1nc2ccccc2c2c1C(=O)N(c1cccc(C(=O)O)c1)C2=O, the AC50 was > 38 µM (inactive). Work on Cc1ccc(Nc2cc(C)nn2-c2nc(C)cc(=O)[nH]2)cc1 yielded an AC50 of 5.05 µM. For COc1ccc(C(c2c(C)[nH]n(-c3ccccc3)c2=O)c2c(C)[nH]n(-c3ccccc3)c2=O)cc1OC, the AC50 was 1.38 µM. O=C(CCl)N(C/C=C/c1ccccc1)c1ccc2c(c1)OCCO2 gave an AC50 of 1.12 µM. In the case of CCC(=O)N/N=C(\C)CC(=O)Nc1cccc([N+](=O)[O-])c1, the AC50 is reported as > 38 µM (inactive). Work on COC(=O)[C@@H]1[C@@H](C(=O)OC)C2(c3ccccc3-c3ccccc32)N(c2ccc(Cl)cc2)N1C#N yielded an AC50 of 34.3 µM. For Cc1c(Cl)cccc1NC(=O)CSCc1cc(=O)[nH][nH]1, the AC50 was 33.3 µM. With Fc1ccc(Nc2nc(Oc3ccccc3F)nc(N3CCCC3)n2)cc1 the AC50 was > 38 µM (inactive). With C=CCn1c(-c2cccnc2Cl)nc2ccccc21 the AC50 was > 38 µM (inactive). c1ccc(Nc2nc(NCc3ccco3)c3ccccc3n2)cc1 gave an AC50 of 10.8 µM. With C/C(CC(=O)Nc1cc(C)ccn1)=N\NC(=O)c1ccc(C)cc1 the AC50 was > 38 µM (inactive). CC1=NNC(=O)/C1=C\c1cn(-c2ccccc2)nc1-c1cccs1 showed an AC50 of 9.64 µM. In the case of N#Cc1cc(-c2ccccc2)nc(Oc2ccccc2)n1, the AC50 is reported as > 38 µM (inactive). With O=C1C=C(Nc2cccc3cccnc23)c2ccccc2C1=O the AC50 was 24.2 µM. With C/C(CC(=O)Nc1cc(C)ccn1)=N\NC(=O)c1ccccc1C the AC50 was > 38 µM (inactive). Work on O=C(CCl)NC(=O)NC12CC3CC(CC(C3)C1)C2 yielded an AC50 of 13.3 µM. Work on O=c1cc(-c2ccc(Cl)c(Cl)c2)[nH][nH]1 yielded an AC50 of 8.07 µM. In the case of CCSc1c([N+](=O)[O-])c(=O)n(-c2ccccc2)c2ccccc12, the AC50 is reported as > 38 µM (inactive). With CCc1nnc(NC(=O)c2nc(S(=O)(=O)Cc3cccc(C)c3)ncc2Cl)s1 the AC50 was > 38 µM (inactive). For O=C(N/N=C\c1ccc(-c2ccccc2[N+](=O)[O-])o1)C1COc2ccccc2O1 (centres undefined), the AC50 was 8.06 µM. For COc1ccccc1NC1=C(N2CCCCC2)C(=O)c2ccccc2C1=O, the AC50 was 8.09 µM. For Cc1c(OCC(=O)Nc2cccnc2)ccc2c3c(c(=O)oc12)CCC3, the AC50 was > 38 µM (inactive). Cc1[nH][nH]c(=O)c1C(c1ccc([N+](=O)[O-])cc1)c1c(C)[nH][nH]c1=O gave an AC50 of 25.4 µM. Work on O=C(Nc1ccc(Cl)cc1)/C(=C/c1cccc(O)c1)c1nc2ccccc2s1 yielded an AC50 of 3.1 µM. With Cc1ccc(N2C(=O)C(Cl)=C(N3CCN(C)CC3)C2=O)c(C)c1 the AC50 was > 38 µM (inactive). With COc1cc(/C=N/NC(=S)Nc2cccc(Cl)c2C)ccc1OCC(=O)N1CC(C)OC(C)C1 (centres undefined) the AC50 was > 38 µM (inactive). For CCc1[nH]nc2c1C(c1cccc(OC(=O)N3CCOCC3)c1)C(C#N)=C(N)O2 (centres undefined), the AC50 was > 38 µM (inactive). In the case of O=C1/C(=C/Nc2ccc3c(c2)OCO3)CCc2ccccc21, the AC50 is reported as 4 µM. COc1cc(C2C(C#N)=C(N)Oc3n[nH]c(C)c32)cc2c1OCO2 (centres undefined) gave an AC50 of 8.43 µM. Work on COc1cccc(NC(=S)/C(=C(\[O-])c2ccc(OC(F)F)cc2)[n+]2ccccc2)c1 yielded an AC50 of 28.1 µM. In the case of CC(=O)NC1C(=O)N(CCN2CCOCC2)c2ccc(Cl)cc21 (centres undefined), the AC50 is reported as 34.1 µM. With CCOc1cc(/C=C2\C(=N)N3N=C(S(=O)(=O)CC)SC3=NC2=O)ccc1OC(=O)c1ccco1 the AC50 was > 38 µM (inactive). Work on Cc1[nH][nH]c(=O)c1C(c1ccc(-c2ccc(F)cc2)o1)c1c(C)[nH][nH]c1=O yielded an AC50 of 3.95 µM. With N#CCn1c(CCl)nc2ccccc2c1=O the AC50 was > 38 µM (inactive). For Cc1[nH]nc2c1C1(CCC3(CC1)OCCO3)C(C#N)=C(N)O2, the AC50 was > 38 µM (inactive). In the case of COc1ccc(C(=O)Nc2ccc(O)c3ccccc23)cc1OC, the AC50 is reported as > 38 µM (inactive). For COc1ccc(NC(=S)Nc2ccc3nsnc3c2)cc1, the AC50 was 25.2 µM. With N#CC1=C(N)C(C#N)(C#N)[C@H](c2c(F)cccc2F)[C@H]2CC3(CC=C12)OCCO3 the AC50 was > 38 µM (inactive). NS(=O)(=O)c1ccc(N=Nc2ccc(=O)[nH]c2O)cc1 showed an AC50 of 24.6 µM. Work on Cn1nc(-c2ccccn2)nc2c(=O)n(C)c(=O)nc1-2 yielded an AC50 of 0.176 µM. For O=C1C=C(NCCN2CCOCC2)C(=O)c2cnccc21, the AC50 was 1.54 µM. With Cc1c(/C=N/Nc2nc3ccccc3[nH]2)c2ccccc2n1C the AC50 was 28.1 µM. In the case of Cc1nnc(Sc2cc(NCCO)c([N+](=O)[O-])c3nonc23)s1, the AC50 is reported as > 38 µM (inactive). In the case of Cc1ccccc1-c1cc2c(nn1)-c1ccccc1C2=O, the AC50 is reported as 8.26 µM. CCc1ccc(S(=O)(=O)/N=C2\C=C(Nc3cccc(C(=O)O)c3)C(=O)c3ccccc32)cc1 gave an AC50 of 0.353 µM. CC(C)(C)c1[nH]nc2c1C(c1ccco1)C(C#N)=C(N)O2 (centres undefined) showed an AC50 of 38.8 µM. In the case of CS(=O)(=O)c1ccc(C(=O)OCC(=O)NC23CC4CC(CC(C4)C2)C3)cc1[N+](=O)[O-], the AC50 is reported as > 38 µM (inactive). For Cc1ccc(Sc2ncnc3onc(C)c23)cc1, the AC50 was > 38 µM (inactive). With COc1cc(NCCCC(C)N)c2ncccc2c1 (centres undefined) the AC50 was 18.1 µM. With CC(=O)N(c1ccccc1)C(C)c1nc(C#N)c(C#N)nc1C (centres undefined) the AC50 was > 38 µM (inactive). In the case of O=c1oc2cc(Oc3c([N+](=O)[O-])cc(C(F)(F)F)cc3[N+](=O)[O-])ccc2c2c1CCCC2, the AC50 is reported as > 38 µM (inactive). For O=C(CCl)N(c1ccccc1)c1c[nH]c2ccccc12, the AC50 was 1.46 µM. For N#C/C(=C\c1cccc(O)c1)c1nc2ccccc2o1, the AC50 was > 38 µM (inactive). In the case of CC(=O)N(C)Cc1ccc(C(=O)CCl)cc1, the AC50 is reported as > 38 µM (inactive). For O=C1C(Br)=Cc2cccc3cccc1c23, the AC50 was > 38 µM (inactive). N#CC1=C(N)Oc2n[nH]c(-c3cccs3)c2C1c1ccsc1 (centres undefined) showed an AC50 of 3.98 µM. With CCOC(=O)c1ccc(CC2S/C(=C(\C#N)C(C)=O)NC2=O)cc1 (centres undefined) the AC50 was > 38 µM (inactive). For COc1ccc(OC)c(NC(=O)Cc2ccc(NC3=NC4CS(=O)(=O)CC4S3)cc2)c1 (centres undefined), the AC50 was > 38 µM (inactive). In the case of Oc1ccc(O)c2c1C1c3ccccc3C2c2ccccc21, the AC50 is reported as 38.4 µM. For COc1cc(/C=C2/SC(=S)NC2=O)ccc1OS(=O)(=O)c1ccc(C)cc1, the AC50 was 5.83 µM. With CCCCC[C@H](O)/C=C/[C@@H]1[C@@H](C/C=C\CCCC(=O)OC)[C@@H](O)C[C@H]1O the AC50 was 36.5 µM. Molecule Cc1noc2ncnc(Sc3ccc(Br)cc3)c12 has an AC50 of 13.5 µM. CCCCCCCOC(=O)c1ccc(OC(=O)c2cccnc2)cc1 showed an AC50 of 4.17 µM. O=C1C(Cl)=C(NCc2cccnc2)C(=O)c2ccccc21 gave an AC50 of 13.6 µM. In the case of COc1ccc(OC)c(N2C(=O)C(Cl)=C(N3CCCCC3)C2=O)c1, the AC50 is reported as > 38 µM (inactive). COc1ccc(S(=O)(=O)Nc2c(O)ccc3ccccc23)cc1OC showed an AC50 of 22.9 µM. With Cc1ccc(OC(=O)c2ccc([N+](=O)[O-])cc2Cl)cn1 the AC50 was > 38 µM (inactive). For COc1cc(/C=C/c2cc[n+](C)cc2)ccc1OCC(=O)Nc1ccc(Cl)c(Cl)c1, the AC50 was > 38 µM (inactive). With Cc1ccc(NC(=O)c2cnc(SCC(=O)NCC3CCCO3)n(C)c2=O)cc1C (centres undefined) the AC50 was > 38 µM (inactive). In the case of COc1ccccc1NC(=O)C1=C(C)Nc2nnnn2C1c1ccncc1 (centres undefined), the AC50 is reported as > 38 µM (inactive). Work on Cn1[nH]c(CSc2ccc(Cl)cc2)cc1=O yielded an AC50 of 13.3 µM. CCN(CC)C(=O)c1ccc2c(c1)C1C(Cl)C(Sc3ccccc3[N+](=O)[O-])CC1C(C(=O)O)N2 (centres undefined) gave an AC50 of 12.5 µM. In the case of Nc1nc(C(=O)N2CCOCC2)nn1C(=O)c1ccc(Cl)cc1, the AC50 is reported as > 38 µM (inactive). With COc1ccc(-c2cc(C(F)(F)F)nc(S(=O)(=O)CCCC(=O)Nc3cccc(O)c3)n2)cc1OC the AC50 was > 38 µM (inactive). In the case of COc1ccc2ccc3c(c2c1)N=CC1(O3)N(C)c2ccccc2C1(C)C (centres undefined), the AC50 is reported as 4.49 µM. For COc1cc(C(c2c(C)[nH][nH]c2=O)c2c(C)[nH][nH]c2=O)ccc1OS(=O)(=O)c1ccc(C)cc1, the AC50 was 8.13 µM. Molecule CCc1nnc(NC(=O)c2nc(S(=O)(=O)Cc3ccccc3)ncc2Cl)s1 has an AC50 of 31.2 µM. For CN(C)C(=O)c1ccc2c(c1[N+](=O)[O-])C(=O)c1ccccc1C2=O, the AC50 was > 12 µM (inactive). O=C(OCn1ncc(Cl)c(Cl)c1=O)c1cccc(C(F)(F)F)c1 showed an AC50 of 12.9 µM.
